Like-named read-outs stand apart in the source and are kept apart here.
Tests used:
[1] = tested on: TRPA1V1; assay: Intracellular calcium (Fluo-4, FLIPR) activation of TRPA1V1 cells (co-expressing TRPA1 and TRPV1) by GRAS compounds; format: cell-based, human; conditions: relative to capsaicin 350 nM;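 also: HEK293 cells co-expressing TRPA1 and TRPV1, fluorescence read at 488/514 nm after baseline subtraction, recorded every 2 s over 10 min, ionomycin 10 µM and buffer as controls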
Method: TRPV1, TRPA1, TRPA1V1 and pcDNA3 cells were grown in 15 mL growth medium [high glucose DMEM (Dulbecco's modification of Eagle's medium) supplemented with 10% FBS (fetal bovine serum), 100 μg/mL penicillin/streptomycin, 100 μg/mL G418] in a 75 cm^2 flask for 3 days in a mammalian cell culture incubator at 33° C. and 5% CO2. TRP Cells were detached with 8 mL of PBS (without calcium or magnesium); for pcDNA3 cells, trypsin was used for releasing the cells. The detached cells were spun at low speed (800-900 rpm for 3 min) to pellet the cells. […] The cells were washed once with 45 mL assay buffer (1×HBSS, 20 mM HEPES) by low speed centrifugation (800-900 rpm for 3 min) and resuspended in 11 mL of the assay buffer in a reagent reservoir. […] The plates were set at room temperature for 30 min. The plates were read in a FLIPR^TETRA instrument (Molecular Devices, Sunnyvale, Calif.) at λex 488 nm and λem 514 nm to record baseline fluorescence following which 20 μL of test material at 1 mM or 100 μM final concentration for pure compounds in a GRAS library or 0.004% for extracts. For agonists, capsaicin 350 nM and AITC at 30 μM; and for controls, ionomycin 10 μM and buffer alone) was added to each well using the dispenser provided in the FLIPR. The data point was recorded every 2 seconds for a total of 10 min.
Average value for activation from three independent assay plates are presented as % of agonist value (AITC, 30 μM for TRPA1 and capsaicin, 350 nM for TRPV1. For TRPA1V1, we used AITC, 30 μM or capsaicin, 350 nM depending on if the compound is an A1 agonist or a V1 agonist. For compounds that activated both A1 and V1, we used AITC for normalization). Variation among triplicates was within 10% of each other. Assayed at 1 mM for pure compounds and 0.004% for extracts.

[2] = molecular target: T1, human TRPV1 (Homo sapiens, UniProt Q8NER1, M315I/T336M); assay: Intracellular calcium (Fluo-4, FLIPR) activation of TRPV1 cells by GRAS compounds; format: cell-based; conditions: relative to capsaicin 350 nM;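 also: TRPV1-expressing cells, FLIPR fluorescence at 488/514 nm with baseline subtracted, sampled every 2 s for 10 min after adding compound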
T1 construct: expressed in transfected cells; pcDNA3 control cells
T1 sequence (Q8NER1 whole entry M315I/T336M): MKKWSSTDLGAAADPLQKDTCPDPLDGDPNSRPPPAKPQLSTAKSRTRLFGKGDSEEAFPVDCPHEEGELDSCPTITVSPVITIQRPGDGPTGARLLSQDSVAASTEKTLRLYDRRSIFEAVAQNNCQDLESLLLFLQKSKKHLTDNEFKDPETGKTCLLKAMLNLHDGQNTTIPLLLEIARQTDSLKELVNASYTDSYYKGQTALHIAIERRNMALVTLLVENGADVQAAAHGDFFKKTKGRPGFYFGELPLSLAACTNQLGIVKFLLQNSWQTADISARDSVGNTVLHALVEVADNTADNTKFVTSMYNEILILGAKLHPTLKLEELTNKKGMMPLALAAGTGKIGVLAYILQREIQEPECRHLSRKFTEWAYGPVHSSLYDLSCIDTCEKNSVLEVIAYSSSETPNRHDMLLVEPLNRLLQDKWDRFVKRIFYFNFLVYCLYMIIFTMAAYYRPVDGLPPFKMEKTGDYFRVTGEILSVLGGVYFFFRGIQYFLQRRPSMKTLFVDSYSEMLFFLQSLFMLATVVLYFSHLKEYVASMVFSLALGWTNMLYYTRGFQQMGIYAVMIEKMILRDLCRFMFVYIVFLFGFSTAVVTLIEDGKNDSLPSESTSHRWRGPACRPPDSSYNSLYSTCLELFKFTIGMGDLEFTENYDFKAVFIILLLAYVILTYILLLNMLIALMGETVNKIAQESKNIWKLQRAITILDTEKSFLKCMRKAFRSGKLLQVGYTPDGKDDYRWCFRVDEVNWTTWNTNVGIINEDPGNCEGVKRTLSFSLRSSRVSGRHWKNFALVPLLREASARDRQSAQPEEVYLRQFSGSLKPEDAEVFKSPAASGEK

[3] = Table 1(h), 1 mM, read-out: V1 activation, % of agonist value
[4] = Table 1(f), 1 mM, read-out: V1 activation, % of agonist value
[5] = Table 1(g), 1 mM, read-out: V1 activation, % of agonist value

## CC(C)c1ccccc1O [2-Isopropylphenol]
[1]; Table 1(h), 1 mM
  A1V1 activation, % of agonist value: 83.5%
[2]; [3]
  activation at 1000 µM: 108%

## Cc1ccc(C(C)CC=O)o1 (stereo not drawn) [3-(5-Methyl-2-furyl)butanal]
[1]; Table 1(f), 1 mM
  A1V1 activation, % of agonist value: 91.6%
[2]; [4]
  activation at 1000 µM: 103%

## CC(=O)c1cc(C)sc1C [3-Acetyl-2,5-dimethylthiophene]
[1]; Table 1(f), 1 mM
  A1V1 activation, % of agonist value: 84.9%
[2]; [4]
  activation at 1000 µM: 95.1%

## CCCCCCCC1CC(C)OC1=O (stereo not drawn) [3-Heptyldihydro-5-methylfuran-2(3H)-one]
[1]; Table 1(f), 1 mM
  A1V1 activation, % of agonist value: 40.5%
[2]; [4]
  activation at 1000 µM: 45.5%

## CCC(C)(O)CCc1ccccc1 (stereo not drawn) [3-Methyl-1-phenyl-3-pentanol]
[1]; Table 1(h), 1 mM
  A1V1 activation, % of agonist value: 70.5%
[2]; [3]
  activation at 1000 µM: 100%

## CC(=O)CCc1ccc(OC(C)=O)cc1 [4-(p-Acetoxyphenyl)-2-butanone]
[1]; Table 1(g), 1 mM
  A1V1 activation, % of agonist value: 91.8%
[2]; [5]
  activation at 1000 µM: 58.9%

## CCCCCCC1CCC(=O)O1 (stereo not drawn) [4-Decanolide]
[1]; Table 1(f), 1 mM
  A1V1 activation, % of agonist value: 35.8%
[2]; [4]
  activation at 1000 µM: 40.9%

## CCc1ccc(C=O)cc1 [4-Ethylbenzaldehyde]
[1]; Table 1(g), 1 mM
  A1V1 activation, % of agonist value: 120.3%
[2]; [5]
  activation at 1000 µM: 56.3%

## CC(=O)c1ccc(C)cc1 [4′-Methylacetophenone]
[1]; Table 1(g), 1 mM
  A1V1 activation, % of agonist value: 136.6%
[2]; [5]
  activation at 1000 µM: 55%

## Cc1ccc(C=O)s1 [5-Methyl-2-thiophenecarboxaldehyde]
[1]; Table 1(g), 1 mM
  A1V1 activation, % of agonist value: 111.4%
[2]; [5]
  activation at 1000 µM: 58.9%

## CCCCCc1cccc(=O)o1 [6-Pentyl-alpha-pyrone]
[1]; Table 1(g), 1 mM
  A1V1 activation, % of agonist value: 95.2%
[2]; Table 1(g), 1 mM
  V1 activation, % of agonist value: 66.1%

## CC1(C)[C@@H](O[C@H]2O[C@H](C(=O)O)[C@@H](O)[C@H](O)[C@H]2O[C@@H]2O[C@H](C(=O)O)[C@@H](O)[C@H](O)[C@H]2O)CC[C@]2(C)[C@H]3C(=O)C=C4[C@@H]5C[C@@](C)(C(=O)O)CC[C@]5(C)CC[C@@]4(C)[C@]3(C)CC[C@@H]12 [18beta-Glycyrrhizinic acid]
[1]; Table 1(g), 1 mM
  A1V1 activation, % of agonist value: 162.7%
[2]; Table 1(g), 1 mM
  V1 activation, % of agonist value: 100.9%

## CC(C)[C@@H]1CC[C@@H](C)C[C@@H]1O [(+)-Neomenthol]
[1]; Table 1(h), 1 mM
  A1V1 activation, % of agonist value: 44.8%
[2]; Table 1(h), 1 mM
  V1 activation, % of agonist value: 68.8%

## CC(=O)S [Acetic acid, thio-]
[1]; Table 1(g), 1 mM
  A1V1 activation, % of agonist value: 115.1%
[2]; Table 1(g), 1 mM
  V1 activation, % of agonist value: 61.9%

## O=C(O)CCCCC(=O)O [Adipic acid]
[1]; Table 1(g), 1 mM
  A1V1 activation, % of agonist value: 70.4%
[2]; [5]
  activation at 1000 µM: 47.6%

## COc1ccccc1 [Anisole]
[1]; Table 1(h), 100 μM (marked *)
  A1V1 activation, % of agonist value: 34.7%
[2]; Table 1(h), 100 μM (marked *), read-out: V1 activation, % of agonist value
  activation at 100 µM: 48.3%

## CCCCCCCCCC1CCCC(=O)O1 (stereo not drawn) [Delta-tetradecalactone]
[1]; Table 1(g), 1 mM
  A1V1 activation, % of agonist value: 61.7%
[2]; Table 1(g), 1 mM
  V1 activation, % of agonist value: 33.0%

## CCCCC1CCCCC(=O)O1 (stereo not drawn) [Epsilon-Decalactone]
[1]; Table 1(f), 1 mM
  A1V1 activation, % of agonist value: 52.9%
[2]; Table 1(f), 1 mM
  V1 activation, % of agonist value: 47.7%

## CSCc1ccco1 [Furfuryl methyl sulfide]
[1]; Table 1(g), 1 mM
  A1V1 activation, % of agonist value: 111.6%
[2]; [5]
  activation at 1000 µM: 50.1%

## O=C([O-])[C@H](O)[C@@H](O)[C@H](O)[C@H](O)CO.[K+] [Gluconic acid, monopotassium salt]
[1]; Table 1(h), 1 mM
  A1V1 activation, % of agonist value: 14.0%
[2]; [3]
  activation at 1000 µM: 33%

## c1ccc2[nH]ccc2c1 [Indole]
[1]; Table 1(f), 1 mM
  A1V1 activation, % of agonist value: 42.9%
[2]; [4]
  activation at 1000 µM: 53.3%

## CC(=O)CC(=O)OCC(C)C [Isobutyle acetoacetate]
[1]; Table 1(g), 1 mM
  A1V1 activation, % of agonist value: 81.9%
[2]; Table 1(g), 1 mM
  V1 activation, % of agonist value: 54.1%

## O=C(O)[C@H](O)[C@@H](O)C(=O)O [L-(+)-Tartaric acid]
[1]; Table 1(h), 100 μM (marked *)
  A1V1 activation, % of agonist value: 38.4%
[2]; Table 1(h), 100 μM (marked *)
  V1 activation, % of agonist value: 60.4%

## CCCCCCCC(=O)O [Octanoic acid]
[1]; Table 1(f), 1 mM
  A1V1 activation, % of agonist value: 83.4%
[2]; [4]
  activation at 1000 µM: 73.7%

## O=C(/C=C/C=C/c1ccc2c(c1)OCO2)N1CCCCC1 [Piperine]
[1]; Table 1(h), 1 mM
  A1V1 activation, % of agonist value: 57.1%
[2]; [3]
  activation at 1000 µM: 120%

## O=C(O)c1ccc(O)c(O)c1 [Protocatechuic acid]
[1]; Table 1(g), 1 mM
  A1V1 activation, % of agonist value: 121.05%
[2]; [5]
  activation at 1000 µM: 60.6%

## O=C(O)C(O)C(O)C(=O)O (stereo not drawn) [Tartaric acid]
[1]; Table 1(h), 1 mM
  A1V1 activation, % of agonist value: 29.6%
[2]; [3]
  activation at 1000 µM: 55.8%
